From US9409845B2, “Alpha-(3,5-dimethoxybenzylidene)-alpha′-hydrocarbyl methylene cyclic ketone and preparation method thereof” (PHARMAXYN LABORATORIES LTD., priority 2012, dated 2016)
Where two headings read alike, the source gives them in different places. Each block holds one molecule with its values, some of them ahead of it.

Tests used:
[1] = system: human hepatoma HepG2 tumor cell lines; experiment: MTT antiproliferation assay, HepG2; type: cell-based; details: for IC50: MTT, 48 h
Method: (§1) The effects on tumor cell proliferation: the antiproliferative activities of α-(3,5-dimethoxy-benzylidene)-α′-hydrocarbonyl methylene cyclic ketone on human hepatoma HepG2 tumor cell lines and human cutaneous melanoma A16-F10 cell lines were evaluated using methyl thiazolyl tetrazolium (MTT) assay.
(§2) Experimental procedures are performed as follows: tumor cells in DMEM culture medium containing 10% fetal bovine serum, 100 U·mL^−1 penicillin and 100 U·mL^−1 streptomycin were cultured in an incubator under 5% CO2 and saturated humidity at 37. Test compounds were dissolved in dimethyl sulfoxide and then diluted with DMEM culture medium to the corresponding concentration, wherein the final concentration of dimethyl sulfoxide was less than 0.01%.
(§3) Negative control group, the blank control group and experimental groups were separately set up, each group with three double-wells. The negative control group was only added with cells but without the drug, the blank control group wad only added with dimethyl sulfoxide solution. The experimental group was added at each well with 11 μL solution containing different concentrations of the sample to be tested, such that the final concentration of the drug were […]. The cells were cultured for additional 48 h in a incubator with 5% CO2 at 37, subsequently the culture solution was gently sucked out and each well was added with 200 μL 0.5 mg/mL of MTT solution. The cells were cultured for another 6 h, then the MTT culture solution was sucked out and each well was added with 150 μL dimethyl sulfoxide, followed by oscillation dissolved for 10 min. The absorbance OD values in each well were measured at the measurement wavelength 570 nm and the reference wavelength 630 nm using a microplate reader.

[2] = system: human cutaneous melanoma A16-F10 cell lines; experiment: MTT antiproliferation assay, A16-F10; type: cell-based
Method: as §1, §2, §3

[3] = molecular target: EGFR (Homo sapiens (Human), UniProt P00533); experiment: EGFR kinase autophosphorylation, time-resolved fluorescence; type: biochemical; details: Table 1
Sequence of EGFR (P00533 25-1210, species assumed): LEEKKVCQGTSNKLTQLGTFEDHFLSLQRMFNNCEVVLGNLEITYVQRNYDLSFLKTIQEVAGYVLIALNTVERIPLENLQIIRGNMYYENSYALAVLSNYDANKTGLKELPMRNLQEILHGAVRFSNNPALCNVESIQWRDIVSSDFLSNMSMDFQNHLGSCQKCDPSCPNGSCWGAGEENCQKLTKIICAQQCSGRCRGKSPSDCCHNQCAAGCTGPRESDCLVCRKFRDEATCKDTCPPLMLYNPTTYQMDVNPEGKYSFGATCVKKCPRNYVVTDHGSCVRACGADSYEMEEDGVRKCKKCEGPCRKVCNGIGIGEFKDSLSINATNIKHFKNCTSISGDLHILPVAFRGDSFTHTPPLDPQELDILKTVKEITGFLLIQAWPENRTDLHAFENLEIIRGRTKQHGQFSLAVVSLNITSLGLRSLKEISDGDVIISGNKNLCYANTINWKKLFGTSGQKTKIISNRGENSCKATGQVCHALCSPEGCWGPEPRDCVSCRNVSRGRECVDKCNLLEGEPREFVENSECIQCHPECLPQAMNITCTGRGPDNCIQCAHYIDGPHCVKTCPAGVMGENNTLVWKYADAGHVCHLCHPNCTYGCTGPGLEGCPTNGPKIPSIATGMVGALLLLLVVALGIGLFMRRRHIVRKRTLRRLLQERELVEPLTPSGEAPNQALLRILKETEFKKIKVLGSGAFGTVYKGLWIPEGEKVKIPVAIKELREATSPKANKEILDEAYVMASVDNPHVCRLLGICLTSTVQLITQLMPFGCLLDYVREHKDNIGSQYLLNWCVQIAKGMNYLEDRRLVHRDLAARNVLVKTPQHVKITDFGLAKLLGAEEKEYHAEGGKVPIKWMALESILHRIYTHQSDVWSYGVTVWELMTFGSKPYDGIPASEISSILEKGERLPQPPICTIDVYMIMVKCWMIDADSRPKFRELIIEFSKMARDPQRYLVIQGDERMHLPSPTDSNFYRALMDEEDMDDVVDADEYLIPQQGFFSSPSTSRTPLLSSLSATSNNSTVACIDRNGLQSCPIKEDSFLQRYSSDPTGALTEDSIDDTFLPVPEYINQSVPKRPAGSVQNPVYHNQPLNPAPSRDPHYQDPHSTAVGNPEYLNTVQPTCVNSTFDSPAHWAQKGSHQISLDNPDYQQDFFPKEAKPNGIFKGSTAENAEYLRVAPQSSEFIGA
Method: Determination of the inhibitory effect of the compound on EGFR: the kinase activity of EGFR was detected according to time-resolved fluorescence detection technology to evaluate automatic phosphorylation levels. The test compound was dissolved in 100% DMSO, diluted with 25 mM HEPES (pH=7.4) to the desired concentration, added into each well with 10 μL of the test compounds and 10 μL solution containing 5 ng EGFR, then cultured for 10 min at room temperature using the recombinase diluted by 100 mM HEPES with a dilution ratio of 1:80, subsequently added with 10 μL solution containing 20 mM HEPES, 2 mM MnCl2, 100 μM Na3VO4, 1 mM DTT buffer, and 20 μL of 0.1 mM ATP and 50 mM MgCl2 and cultured for 1 h. The positive group in each plate was added with ATP-MgCl2 enzyme, the negative control group without adding with ATP-MgCl2 enzyme, the liquid was sucked out completely after cultured for 1 h, and each well was washed with buffer for three times. The wells were added with 75 μL anti-phosphorylated tyrosine antibody containing 400 ng europium labeling and cultured 1 h, washed, then added with enhancing solution.

[4] = Table 1, read-out: anti-proliferation IC50 Hep G2
[5] = Table 1, MTT, 48 h, read-out: anti-proliferation IC50 A16-F10
[6] = Homo sapiens, A16-F10, Table 1, MTT, 48 h, read-out: anti-proliferation IC50 A16-F10
[7] = Homo sapiens, HepG2, Table 1, read-out: anti-proliferation IC50 Hep G2
[8] = Homo sapiens, HepG2, Table 2, read-out: Anti-proliferative effect on HepG2 tumor cells IC50

Structure (SMILES): COc1cc(/C=C2\CCC/C(=C\c3ccc(Cl)cc3)C2=O)cc(OC)c1 [(2E,6E)-2-(3,5-dimethoxybenzyl-idene)-6-(4-chlorobenzylidene)cyclohexanone]
- IC50 [1, 4]: 25.5 µM
- IC50 [2, 5]: 18.4 µM
- IC50 [3]: 15.3 µM

Structure (SMILES): COc1cc(/C=C2\CCC/C(=C\C3CCCCC3)C2=O)cc(OC)c1 [(2E,6E)-2-(3,5-dimethoxybenzyl-idene)-6-(cyclohexylmethylene)cyclohexanone]
- IC50 [1, 4]: 17.2 µM
- IC50 [2, 5]: 12.2 µM
- IC50 [3]: 7.52 µM

Structure (SMILES): COc1cc(/C=C2\CCC/C(=C\c3cccc(Cl)c3)C2=O)cc(OC)c1 [(2E,6E)-2-(3,5-dimethoxybenzyl-idene)-6-(3-chlorobenzylidene)cyclohexanone]
- IC50 [3]: 2.27 µM

Structure (SMILES): COc1cc(/C=C2\CCC/C(=C\c3ccc(S(C)(=O)=O)cc3)C2=O)cc(OC)c1 [(2E,6E)-2-(3,5-dimethoxybenzyl-idene)-6-(4-methylsulphonylbenzylidene)cyclohexanone]
- IC50 [3]: 1.96 µM

Structure (SMILES): COc1cc(/C=C2\CCC/C(=C\c3ccccc3Cl)C2=O)cc(OC)c1 [(2E,6E)-2-(3,5-dimethoxybenzyl-idene)-6-(2-chlorobenzylidene)cyclohexanone]
- IC50 [3]: 1.54 µM

Structure (SMILES): COc1cc(/C=C2\CCC/C(=C\c3ccccc3OC)C2=O)cc(OC)c1 [(2E,6E)-2-(3,5-dimethoxybenzyl-idene)-6-(2-methoxybenzylidene)cyclohexanone]
- IC50 [1, 4]: > 200 µM
- IC50 [2, 5]: > 200 µM

Structure (SMILES): COc1cc(/C=C2\CCC/C(=C\c3ccc(Br)cc3)C2=O)cc(OC)c1 [(2E,6E)-2-(3,5-dimethoxybenzyl-idene)-6-(4-bromophenyl-methylene)cyclohexanone]
- IC50 [3]: 7.12 µM

Structure (SMILES): COc1cc(/C=C2\CCC/C(=C\c3ccc(F)cc3)C2=O)cc(OC)c1 [(2E,6E)-2-(3,5-dimethoxybenzyl-idene)-6-(4-fluorobenzylidene)cyclohexanone]
- IC50 [1, 4]: 12.1 µM
- IC50 [2, 5]: 7.63 µM
- IC50 [3]: 5.69 µM

Structure (SMILES): COc1cc(/C=C2\CCC/C(=C\c3ccc(N(C)C)cc3)C2=O)cc(OC)c1 [(2E,6E)-2-(3,5-dimethoxybenzyl-idene)-6-(4-dimethylaminobenzylidene)cyclohexanone]
- IC50 [1, 4]: 11.8 µM
- IC50 [2, 5]: 5.84 µM
- IC50 [3]: 3.98 µM

Structure (SMILES): COc1cccc(/C=C2\CCC/C(=C\c3cc(OC)cc(OC)c3)C2=O)c1 [(2E,6E)-2-(3,5-dimethoxybenzyl-idene)-6-(3-methoxybenzylidene)cyclohexanone]
- IC50 [3]: 6.13 µM

Structure (SMILES): COc1cc(/C=C2\CCC/C(=C\c3cc(C(C)(C)C)c(O)c(C(C)(C)C)c3)C2=O)cc(OC)c1 [(2E,6E)-2-(3,5-dimethoxybenzylidene)-6-(3,5-di-t-butyl-4-hydroxybenzylidene)cyclohexanone]
- IC50 [3]: 4.81 µM

Structure (SMILES): COc1cc(/C=C2\CCC/C(=C\c3ccccc3Br)C2=O)cc(OC)c1 [(2E,6E)-2-(3,5-dimethoxybenzyl-idene)-6-(2-bromobenzylidene)cyclohexanone]
- IC50 [1, 4]: 32.2 µM
- IC50 [2, 5]: 12.4 µM
- IC50 [3]: 8.08 µM

Continued, in another order:

- IC50 [2, 6]: 0.2 µM
Structure (SMILES): C#Cc1cccc(Nc2ncnc3cc(OCCOC)c(OCCOC)cc23)c1 [erlotinib, reference compound]

- melting point: 131.2 to 131.6 °C
- IC50 [3]: 5.37 µM
Structure (SMILES): COc1cc(/C=C2\CCC/C(=C\c3ccc(OC)c(O)c3)C2=O)cc(OC)c1 [(2E,6E)-2-(3,5-dimethoxy-benzylidene)-6-(3-hydroxy-4-methoxybenzylidene)cyclohexanone]

- IC50 [3]: 6.85 µM
Structure (SMILES): COc1cc(/C=C2\CCC/C(=C\c3cccc(Br)c3)C2=O)cc(OC)c1 [(2E,6E)-2-(3,5-dimethoxybenzylidene)-6-(3-bromobenzylidene)cyclohexanone]

- IC50 [3]: 1.68 µM
Structure (SMILES): COc1cc(/C=C2\CCC/C(=C\c3ccccc3)C2=O)cc(OC)c1 [(2E,6E)-2-(3,5-dimethoxy-benzylidene)-6-benzylidene cyclohexanone]

- IC50 [1, 7]: 1.01 µM
- IC50 [2, 6]: 0.71 µM
- IC50 ([2]; Homo sapiens, A16-F10, cell line not given, read-out: anti-tumor activity IC50): < 1 µM
- IC50 [3]: 0.43 µM
Structure (SMILES): COc1cc(/C=C2\CCC/C(=C\c3ccc(O)c(O)c3)C2=O)cc(OC)c1 [(2E,6E)-2-(3,5-dimethoxybenzylidene)-6-(3,4-dihydroxybenzylidene)cyclohexanone]

- IC50 [1, 7]: 8.56 µM
- IC50 [2, 6]: 4.71 µM
- IC50 [3]: 2.08 µM
Structure (SMILES): COc1cc(/C=C2\CCC/C(=C\c3cc(OC)cc(OC)c3)C2=O)cc(OC)c1 [(2E,6E)-2,6-bis (3,5-dimethoxybenzylidene)cyclohexanone]

- IC50 [1, 8]: 11.3 µM
Structure (SMILES): COc1cc(/C=C2\CC/C(=C\c3ccccc3)C2=O)cc(OC)c1 [(2E,5E)-2-(3,5-dimethoxybenzylidene)-5-benzylidenecyclopentanone]
- anti-proliferative effect on HepG2 tumor cell lines (in words) ([1]; comparison): significantly stronger than curcumin

- IC50 [3]: 18.7 µM
Structure (SMILES): COc1ccc(/C=C2\CCC/C(=C\c3cc(OC)cc(OC)c3)C2=O)cc1 [(2E,6E)-2-(3,5-dimeth-oxybenzylidene)-6-(4-methoxybenzylidene)cyclohexanone]

- IC50 [1, 8]: 79.9 µM
Structure (SMILES): COc1cc(/C=C2\CC/C(=C\c3ccc(F)cc3)C2=O)cc(OC)c1 [(2E,5E)-2-(3,5-dimethoxybenzylidene)-5-(4-fluorobenzylidene)cyclopentanone]

- IC50 [3]: 4.66 µM
Structure (SMILES): COc1cc(/C=C2\CCC/C(=C\c3ccc(O)cc3)C2=O)cc(OC)c1 [(2E,6E)-2-(3,5-dimethoxybenzylidene)-6-(4-hydroxybenzylidene)cyclohexanone]

- IC50 [2, 6]: 18.7 µM
Structure (SMILES): COc1cc(/C=C/C(=O)CC(=O)/C=C/c2ccc(O)c(OC)c2)ccc1O [curcumin, reference compound]

- IC50 [1, 7]: 7.53 µM
- IC50 [2, 6]: 5.64 µM
- IC50 [3]: 2.17 µM
Structure (SMILES): COc1cc(/C=C2\CCC/C(=C\c3ccccc3F)C2=O)cc(OC)c1 [(2E,6E)-2-(3,5-dimethoxybenzylidene)-6-(2-fluorobenzylidene)cyclohexanone]
